We go through two compounds from US11161830B2, “4-pyridone compound or salt thereof, and pharmaceutical composition and formulation including same” (priority 2017, dated 2021).

The test system of one assay is HBV (genotype AeUS). Put plainly: Test Example 2-1: anti-HBV assay in PXB-cells (fresh human hepatocytes). Particulars: Hepatitis B virus, Hepatocyte, PXB-cells infected with HBV genotype AeUS, culture supernatant on day 32 post infection. It counts as cell-based, hepatitis B virus. The method, boiled down:
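PXB-cells (primary human hepatocytes from chimeric mice) infected with mouse-serum-derived HBV genotype AeUS at ~10 copies/cell with 4% PEG-8000. Compound dosed days 17–32 post-infection, refreshed every 5 days, 37 °C. Day-32 supernatant HBV-DNA by real-time PCR and HBsAg by chemiluminescent immunoassay, as % of untreated control; IC50 by log-linear regression.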

The test system of another assay is HBV genotype C. Put plainly: Test Example 3-1: in vivo efficacy study in PXB mouse (chimeric mouse with human hepatocytes). Also noted: species or system hepatitis B virus. The following applies: orally 100 mg/kg twice a day for 14 days. The protocol: An in vivo efficacy study with a. PXB mouse (a chimeric mouse with human hepatocytes) was carried out in PhenixBio Co., Ltd. 27-Week-or-more-old male mice having body weights of 15 g or more after the elapse of 12 weeks from the infection with HBV genotype C were allocated into three groups (2 mice per group) and used.
The compounds of Examples 6-5 and 10-2 were each orally administered at 100 mg/kg twice a day for 14 days. The other group was taken as a control group for which administration was not carried out. A first administration day was taken as day 0, and before administration on day 0, day 3, Day 7, and day 10, and on day 14, the blood was collected from the orbital venous plexus under anesthesia with isoflurane. The serum was separated from the collected blood and purified with a QIAamp (registered trademark) DNA Blood Mini Kit (manufactured by QIAGEN). The amount of HBV-DNA in the obtained solution was absolutely quantified by a real-time PCR method. In addition, the amount of HBsAg and the amount of HBcrAg in the serum were each absolutely quantified by chemiluminescent enzyme immunoassay using Lumipulse (registered trademark) HBsAg-HQ (manufactured by Fujirebio Inc.) and Lumipulse (registered trademark) HBcrAg (manufactured by Fujirebio Inc.).

Where [1] appears, read: Day 0 (before administration), individual mice.

Structures are written as SMILES. Several values for one entry are separate records, joined by “and”; a condition that tells them apart may be missing. Identical values can stand only once. Like-named read-outs stand apart in the source and are kept apart here. A value given as a limit tells only on which side of the number the result lay.

For orientation: IC50 means the midpoint of a concentration-inhibition curve. Take `COCCN1CCN(c2nc3ccc(-n4cc(C(=O)O)c(=O)cc4-c4ccc(N5CCCC5)c(Cl)c4)cc3s2)CC1` [Example 6-5, 6-(3-chloro-4-(pyrrolidin-1-yl)phenyl)-1-(2-(4-(2-methoxyethyl)piperazine-1-yl)benzo[d]thiazol-6-yl)-4-oxo-1,4-dihydropyridine-3-carboxylic acid]: the IC50 in the assay on HBV (genotype AeUS) (read-out: IC50 HBV-DNA) was under 8 nM; in the assay on HBV (genotype AeUS) (read-out: IC50 HBsAg), 16 nM. Also, the HBV-DNA in serum in the assay on HBV genotype C (setting [1]) was 2.3E+09 copies/mL and 2.1E+09 copies/mL; with HBV genotype C (Day 3, individual mice) it was 8.7E+08 copies/mL and 7.1E+08 copies/mL; in the assay with HBV genotype C (Day 7, individual mice), 2.7E+08 copies/mL and 2.9E+08 copies/mL; with HBV genotype C (Day 10, individual mice), 3.4E+08 copies/mL and 6.3E+08 copies/mL; in the assay with HBV genotype C (Day 14, individual mice), 3.3E+08 copies/mL and 8.4E+08 copies/mL. Besides, the HBcrAg in serum in the assay on HBV genotype C (setting [1]) is 4.5E+08 U/mL and 2.9E+08 U/mL; in the assay with HBV genotype C (Day 3, individual mice), 1.5E+08 U/mL and 9.7E+07 U/mL; with HBV genotype C (Day 7, individual mice), 8.7E+07 U/mL and 7.7E+07 U/mL; in the assay with HBV genotype C (Day 14, individual mice), 7.5E+07 U/mL and 9.1E+07 U/mL. Moreover, the HBsAg in serum in the assay with HBV genotype C (setting [1]) was 3,578 IU/mL and 2,370 IU/mL; in the assay with HBV genotype C (Day 3, individual mice), 781 IU/mL and 357 IU/mL; with HBV genotype C (Day 7, individual mice) it was 570 IU/mL and 345 IU/mL; in the assay on HBV genotype C (Day 10, individual mice), 588 IU/mL and 355 IU/mL; in the assay with HBV genotype C (Day 14, individual mice), 540 IU/mL and 349 IU/mL.

For the compound `COC[C@H]1CCCN1c1nc2ccc(-n3cc(C(=O)O)c(=O)cc3-c3ccc(N4CC[C@@H](OC)C4)cc3)cc2s1` [Example 10-2, 1-(2-((R)-2-(methoxymethyl)pyrrolidin-1-yl)benzo[d]thiazol-6-yl)-6-(4-((R)-3-methoxypyrrolidin-1-yl)phenyl)-4-oxo-1,4-dihydropyridine-3-carboxylic acid], the IC50 is 18 nM with HBV (genotype AeUS) (read-out: IC50 HBV-DNA) and 22 nM in the assay with HBV (genotype AeUS) (read-out: IC50 HBsAg). Further, the HBV-DNA in serum was 1.5E+09 copies/mL and 3.2E+09 copies/mL in the assay with HBV genotype C (setting [1]); 1.0E+09 copies/mL and 1.4E+09 copies/mL with HBV genotype C (Day 3, individual mice); 6.9E+08 copies/mL and 4.7E+08 copies/mL in the assay with HBV genotype C (Day 7, individual mice); 8.4E+08 copies/mL and 6.4E+08 copies/mL in the assay with HBV genotype C (Day 10, individual mice); 9.6E+08 copies/mL and 1.3E+09 copies/mL in the assay on HBV genotype C (Day 14, individual mice). The HBcrAg in serum with HBV genotype C (setting [1]) was 2.7E+08 U/mL and 4.1E+08 U/mL; in the assay on HBV genotype C (Day 3, individual mice), 8.8E+07 U/mL and 1.4E+08 U/mL; with HBV genotype C (Day 7, individual mice) it was 7.5E+07 U/mL and 7.3E+07 U/mL; in the assay on HBV genotype C (Day 14, individual mice), 7.8E+07 U/mL and 9.8E+07 U/mL. In addition, the HBsAg in serum was 2,930 IU/mL and 2,629 IU/mL with HBV genotype C (setting [1]); 638 IU/mL and 564 IU/mL with HBV genotype C (Day 3, individual mice); 450 IU/mL and 429 IU/mL in the assay with HBV genotype C (Day 7, individual mice); 476 IU/mL and 407 IU/mL in the assay with HBV genotype C (Day 10, individual mice); 522 IU/mL and 477 IU/mL in the assay on HBV genotype C (Day 14, individual mice).
